{"source": "patent US12180508B2", "about": "“Method of preparing in vitro-matured human intestinal organoids and use thereof” (KOREA RESEARCH INSTITUTE OF BIOSCIENCE AND BIOTECHNOLOGY, priority 2018, dated 2024)", "key": {"[1]": {"tested_on": "p-STAT3 (Y705)", "assay": "Phospho-STAT3 immunostaining of hIOs", "format": "cell-based, human", "conditions": "IL-2 treated Mat-hIOs; Stattic 1 μM or S3I-201 10 μM", "protocol": "(§1) An immunofluorescence analysis was performed according to a known method (Kwak et al., Biochemical and biophysical research communications 457, 554-560, 2015). In detail, hPSCs and definitive endodermal cells were fixed in 4% paraformaldehyde (PFA) and then permeabilized with PBS containing 0.1% Triton X-100.\n(§2) hIOs and tissues were fixed, cryo-protected in sucrose, and frozen using an optimal-cutting-temperature (OCT) compound (Sakura Finetek, Tokyo, Japan). Then, frozen sections were cut at a thickness of 10-20 μm using a cryostat microtome at −20° C. and permeabilized with PBS containing 0.1% Triton X-100 for immunofluorescence analysis.\n(§3) In detail, after being blocked with 4% BSA, cells were incubated with primary antibodies at 4° C. overnight, and then incubated with secondary antibodies for 1 hr at room temperature. The used primary antibodies are as in Table 2. Paraffin sections were deparaffinized, subjected to antigen retrieval, and stained in a similar manner to OCT sections. DAPI was added to visualize nuclei. Slides were examined with an Axiovert 200M microscope (Carl Zeiss, Gottingen, Germany) or a fluorescence microscope (IX51, Olympus, Japan)."}, "[2]": {"tested_on": "hPSC-derived hIOs", "assay": "Growth / size (surface area, budding) of hPSC-derived hIOs", "format": "cell-based, human", "conditions": "for stimulation of IL-2 on hIO growth in presence of inhibitor: with IL-2, S31-201 10 μM, Stattic 1 μM, Rapamycin 10 nM; for growth of hIOs with many crypt-like budding structures: treatment with STAT3 activators", "protocol": "To estimate the size of hIOs, surface areas of horizontal cross-sections of hIOs were measured."}, "[3]": {"biological_target": "T1, CFTR (Homo sapiens, UniProt P13569)", "T1 construct": "To examine the function of CFTR present in mature intestine epithelial cells in organoid models; endogenous in cells; host or cells: hPSC-derived human intestinal organoids (control, co-cultured with Jurkat T cells, or IL-2-treated)", "T1 sequence (P13569 whole entry)": "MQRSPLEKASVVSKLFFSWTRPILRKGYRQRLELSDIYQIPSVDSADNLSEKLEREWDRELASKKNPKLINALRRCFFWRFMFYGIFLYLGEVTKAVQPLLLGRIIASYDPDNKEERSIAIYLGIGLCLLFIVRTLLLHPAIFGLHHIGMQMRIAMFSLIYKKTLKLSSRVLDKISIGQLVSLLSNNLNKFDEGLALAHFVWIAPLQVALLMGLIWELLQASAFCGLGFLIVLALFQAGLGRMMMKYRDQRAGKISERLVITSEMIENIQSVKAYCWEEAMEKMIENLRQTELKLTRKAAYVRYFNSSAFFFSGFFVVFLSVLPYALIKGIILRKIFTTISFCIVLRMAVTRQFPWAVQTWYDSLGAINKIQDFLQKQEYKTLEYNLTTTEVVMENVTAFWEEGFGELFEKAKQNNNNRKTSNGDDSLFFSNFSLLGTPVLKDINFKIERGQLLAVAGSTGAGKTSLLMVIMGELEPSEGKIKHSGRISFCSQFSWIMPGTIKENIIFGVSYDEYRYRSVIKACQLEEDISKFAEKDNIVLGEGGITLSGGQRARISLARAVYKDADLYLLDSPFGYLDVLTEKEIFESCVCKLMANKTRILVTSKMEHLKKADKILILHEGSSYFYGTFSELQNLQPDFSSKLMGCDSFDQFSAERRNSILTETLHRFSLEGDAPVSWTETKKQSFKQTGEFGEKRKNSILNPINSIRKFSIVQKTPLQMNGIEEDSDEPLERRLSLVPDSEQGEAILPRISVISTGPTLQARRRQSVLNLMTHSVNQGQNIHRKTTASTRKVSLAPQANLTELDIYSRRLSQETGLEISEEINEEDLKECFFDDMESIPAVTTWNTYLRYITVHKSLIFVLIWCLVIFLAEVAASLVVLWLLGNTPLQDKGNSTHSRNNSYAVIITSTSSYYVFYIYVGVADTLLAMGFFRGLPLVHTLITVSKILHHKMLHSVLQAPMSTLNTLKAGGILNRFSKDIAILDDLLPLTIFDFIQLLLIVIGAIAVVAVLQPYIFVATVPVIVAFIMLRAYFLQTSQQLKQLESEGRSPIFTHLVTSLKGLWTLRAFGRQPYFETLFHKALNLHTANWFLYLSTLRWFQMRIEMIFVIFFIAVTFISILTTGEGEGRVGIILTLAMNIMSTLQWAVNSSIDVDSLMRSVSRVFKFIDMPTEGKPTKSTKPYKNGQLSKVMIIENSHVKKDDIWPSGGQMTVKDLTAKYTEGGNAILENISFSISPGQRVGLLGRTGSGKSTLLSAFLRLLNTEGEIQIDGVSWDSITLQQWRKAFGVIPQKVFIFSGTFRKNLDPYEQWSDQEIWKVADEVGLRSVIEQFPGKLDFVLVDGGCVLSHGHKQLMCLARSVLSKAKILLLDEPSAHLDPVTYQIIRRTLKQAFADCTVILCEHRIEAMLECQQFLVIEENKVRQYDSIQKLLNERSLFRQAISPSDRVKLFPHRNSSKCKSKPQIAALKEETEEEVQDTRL", "assay": "Forskolin-induced organoid swelling assay (CFTR function)", "format": "cell-based", "conditions": "mature organoids, forskolin 25 uM, 120 minutes", "protocol": "To examine the function of CFTR present in mature intestine epithelial cells in organoid models, forskolin-induced organoid swelling assay was performed. Control and co-cultured or IL-2-treated hIOs (n=4) were treated with forskolin (25 uM, Merckmillopore), and then morphological observation was performed for 120 min at 20 min intervals through live imaging function of a microscope (IX83, Olympus). CFTR inhibitors (CFTRinh172, GlyH101) were co-treated, and morphological observation was performed for the same time. The size of organoids was calculated every hour, and mean values thereof were used to plot a graph."}, "[4]": {"tested_on": "hIOs", "assay": "qPCR of intestinal maturation markers in hIOs", "format": "cell-based, human", "conditions": "colivelin treatment compared with control hIOs", "protocol": "Total RNA was extracted from cells using an RNeasy Kit (Qiagen), and reverse-transcribed using a Superscript III cDNA synthesis kit (Invitrogen). qRT-PCR was performed by a method disclosed in a 7500 Fast Real-time PCR system (Applied Biosystems, Foster City, CA, USA) (Cho et al., Oncotarget 6, 23837-23844, 2015). All experiments were performed in triplicate, and CT value of each target gene was calculated using a software provided by the manufacturer. Nucleotide sequences of the used primers are as in Table 1."}, "[5]": {"tested_on": "hIOs", "assay": "Immunofluorescence staining of marker proteins in hIOs", "format": "cell-based, human", "conditions": "colivelin treatment", "protocol": "as §1, §2, §3"}, "[6]": {"biological_target": "P-glycoprotein (P-gp)/MDR1 (Homo sapiens, UniProt P08183)", "sequence (P08183 whole entry)": "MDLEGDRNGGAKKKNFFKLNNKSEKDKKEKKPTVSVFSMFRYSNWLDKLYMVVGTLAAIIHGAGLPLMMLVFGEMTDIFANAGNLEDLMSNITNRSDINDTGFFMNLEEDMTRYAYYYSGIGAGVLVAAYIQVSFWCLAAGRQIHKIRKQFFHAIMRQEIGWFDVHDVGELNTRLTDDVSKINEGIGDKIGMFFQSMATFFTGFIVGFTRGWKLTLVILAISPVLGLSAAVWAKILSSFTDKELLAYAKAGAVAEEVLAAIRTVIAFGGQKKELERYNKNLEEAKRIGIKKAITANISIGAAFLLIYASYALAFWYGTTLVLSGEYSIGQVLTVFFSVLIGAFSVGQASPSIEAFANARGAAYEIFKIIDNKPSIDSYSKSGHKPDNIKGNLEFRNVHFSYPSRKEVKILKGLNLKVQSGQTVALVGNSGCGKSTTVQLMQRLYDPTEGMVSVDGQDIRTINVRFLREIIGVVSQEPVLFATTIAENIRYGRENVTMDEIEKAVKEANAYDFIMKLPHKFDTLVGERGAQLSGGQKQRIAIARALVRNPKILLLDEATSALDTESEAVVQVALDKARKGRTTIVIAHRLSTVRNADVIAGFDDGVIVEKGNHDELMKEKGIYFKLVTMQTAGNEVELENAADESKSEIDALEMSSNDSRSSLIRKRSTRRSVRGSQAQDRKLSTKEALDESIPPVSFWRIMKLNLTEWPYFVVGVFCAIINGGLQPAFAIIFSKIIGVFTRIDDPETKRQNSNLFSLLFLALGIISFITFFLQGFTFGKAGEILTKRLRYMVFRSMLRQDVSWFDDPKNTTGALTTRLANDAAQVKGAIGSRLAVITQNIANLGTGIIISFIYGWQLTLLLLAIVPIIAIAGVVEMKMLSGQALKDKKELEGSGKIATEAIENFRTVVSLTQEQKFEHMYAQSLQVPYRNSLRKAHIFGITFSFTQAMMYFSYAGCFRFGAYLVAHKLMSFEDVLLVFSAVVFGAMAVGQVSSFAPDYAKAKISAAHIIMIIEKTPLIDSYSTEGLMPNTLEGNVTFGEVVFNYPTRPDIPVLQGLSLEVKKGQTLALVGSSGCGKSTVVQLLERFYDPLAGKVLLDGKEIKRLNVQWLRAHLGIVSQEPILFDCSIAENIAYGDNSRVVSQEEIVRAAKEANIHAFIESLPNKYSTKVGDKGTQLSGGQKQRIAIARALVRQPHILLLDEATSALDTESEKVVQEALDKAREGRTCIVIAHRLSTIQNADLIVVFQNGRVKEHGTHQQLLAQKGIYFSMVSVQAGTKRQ", "conditions": "paclitaxel 10 μM basolateral, 2 hr incubation"}}, "note": "Like-named read-outs stand apart in the source and are kept apart here.", "data": [{"molecule": "Cc1ccc(S(=O)(=O)OCC(=O)Nc2ccc(C(=O)O)c(O)c2)cc1", "note": "[S3I-201]", "values": [{"measurement": "phosphorylation of STAT3 at tyrosine 705 (Y705)", "setting": "[1]", "value": "blocked"}, {"measurement": "stimulation of IL-2 on hIO growth in presence of inhibitor", "setting": "[2]", "value": "prevented"}]}, {"molecule": "O=C(CNc1ccc2ccccc2c1)N/N=C/c1cc(Br)c(O)c(Br)c1O", "note": "[GlyH101]", "values": [{"measurement": "forskolin-induced swelling effect under CFTR inhibitor", "setting": "[3]", "value": "completely blocked"}]}, {"molecule": "O=C(O)c1ccc(/C=C2\\SC(=S)N(c3cccc(C(F)(F)F)c3)C2=O)cc1", "note": "[CFTRinh172]", "values": [{"measurement": "forskolin-induced swelling effect under CFTR inhibitor", "setting": "[3]", "value": "completely blocked"}]}, {"molecule": "Colivelin", "values": [{"measurement": "expression of intestinal maturation markers", "setting": "[4]", "value": "increased"}, {"measurement": "growth of hIOs with many crypt-like budding structures", "setting": "[2]", "value": "promoted the growth"}, {"measurement": "size of hIO", "setting": "[2]; various concentrations of colivelin", "value": "increased"}, {"measurement": "protein expression of Ki-67, OLFM4, MUC13 and KRT20", "setting": "[5]", "value": "increased"}]}, {"molecule": "CC(=O)O[C@H]1C(=O)[C@@]2(C)[C@H]([C@H](OC(=O)c3ccccc3)[C@]3(O)C[C@H](OC(=O)[C@H](O)[C@@H](NC(=O)c4ccccc4)c4ccccc4)C(C)=C1C3(C)C)[C@]1(OC(C)=O)CO[C@@H]1C[C@@H]2O", "note": "[paclitaxel]", "values": [{"measurement": "concentration of paclitaxel at the apical side, increase compared with control hIOs", "setting": "[6]; IL-2-treated hIOs", "value": "~3", "unit": "fold"}, {"measurement": "concentration of paclitaxel at the apical side, increase compared with control hIOs", "setting": "[6]; co-cultured hIOs", "value": "approximately 2.3 fold"}]}, {"molecule": "O=[N+]([O-])c1ccc2c(c1)S(=O)(=O)C=C2", "note": "[Stattic]", "values": [{"measurement": "phosphorylation of STAT3 at tyrosine 705 (Y705)", "setting": "[1]", "value": "blocked"}, {"measurement": "stimulation of IL-2 on hIO growth in presence of inhibitor", "setting": "[2]", "value": "prevented"}]}, {"molecule": "IL-22: another known STAT3 activator, cytokine (protein, UniProt Q9GZX6 34-179, looked up) Interleukin-22: APISSHCRLDKSNFQQPYITNRTFMLAKEASLADNNTDVRLIGEKLFHGVSMSERCYLMKQVLNFTLEEVLFPQSDRFQPYMQEVVPFLARLSNRLSTCHIEGDDLHIQRNVQKLKDTVKKLGESGEIKAIGELDLLFMSLRNACI", "values": [{"measurement": "growth of hIOs with many crypt-like budding structures", "setting": "[2]", "value": "promoted the growth"}]}]}
